Results on 9 molecules are retold here after US20190011433A1, “CELL CO-CULTURE SYSTEMS AND USES THEREOF” (Dana-Farber Cancer Institute, Inc., priority 2007, published 2019).

The subject of experiment [1] is MM-1S-GFP-luc myeloma cells. The experiment in a line: CS-BLI drug sensitivity of MM-1S-GFP-luc cells in presence vs absence of stromal cells. To be noted: presence vs absence of HS-5 BMSCs (10,000 per well). The experiment is classed as cell-based, human. As to the method: Luciferin (7.5 mg/mL; Xenogen Corp, Alameda, Calif.) was added at the volume stated in each experiment. Cell viability and the precise cell counts were established by Trypan blue exclusion assay immediately before plating of the cells. Compartment-specific bioluminescence emitted by individual wells of these plates was measured with two different bioluminescence imaging modalities, namely a Xenogen IVIS® Imaging System (FIG. 1A and FIG. 1B) and a standard luminometer plate reader—Luminoskan luminometer (Labsystems, MA) (FIG. 1C). The results with each method were analyzed for the linearity of the bioluminescent signal vs. cell number using the Living Image® software (Xenogen Corp, Alameda Calif.).

The test system of experiment [2] is MM-1R-GFP-luc myeloma cells. The experiment in a line: CS-BLI drug sensitivity of MM-1R-GFP-luc cells in presence vs absence of stromal cells. To be noted: MM-1R-GFP-luc (Dex-resistant), presence vs absence of HS-5 BMSCs (10,000 per well).
For experiment [3], the system named is KU812F-luc leukemia cells. Nature of the experiment: CS-BLI drug sensitivity of KU812F-luc leukemia cells in presence vs absence of HS-5 BMSCs. In kind it is cell-based. To be noted: presence vs absence of HS-5 BMSCs (10,000 per well). The text has this:
In another set of experiments, Applicants tested and observed similar protective/sensitization effect of stroma cell on KU812F-luc cells on various drugs (data not shown).
(§1) Applicants expanded the application of in vitro compartment-specific bioluminescence imaging assays beyond the MM cells to other tumor models, namely a few leukemic cell lines. Applicants specifically tested luciferase-expressing K562-luc-neo and KU812F-luc-neo leukemic cells against standard anti-leukemia agents, including AraC and Doxo, in the presence vs. absence of HS-5 stromal cells (FIG. 7A and FIG. 7B).

The subject of the next experiment is A375-luc-neo cells. The experiment in a line: CS-BLI drug sensitivity of A375-luc-neo cells alone or with HS-5 BMSCs. The experiment is classed as cell-based. To be noted: A375-luc-neo alone or with HS-5 BMSCs (10,000/well), 48 hrs. The method, then:
(§2) MDA-MB-231met-luc-neo (FIG. 18A, FIG. 18B), A375-luc-neo (FIG. 18C, FIG. 18D) and FRO-luc-neo (FIG. 18E, FIG. 18F) cells were plated either alone or mixed with HS-5 BMSCs (10,000 /well) and treated the following day. The cultures of tumor cells and their co-cultures with BMSCs were incubated for an additional 48 hrs.

The test system of the next experiment is K562-luc leukemia cells. The experiment in a line: CS-BLI drug sensitivity of K562-luc leukemia cells in presence vs absence of HS-5 BMSCs. The experiment is classed as cell-based. To be noted: presence vs absence of HS-5 BMSCs (10,000 per well).
Description: as §1

For the next experiment, the system named is FRO-luc-neo cells. Nature of the experiment: CS-BLI drug sensitivity of FRO-luc-neo cells alone or with HS-5 BMSCs. In kind it is cell-based. To be noted: FRO-luc-neo alone or with HS-5 BMSCs (10,000/well), 48 hrs. As to the method: as §2
The test system of experiment [4] is MDA-MB-231met-luc-neo cells. The experiment in a line: CS-BLI drug sensitivity of MDA-MB-231met-luc-neo cells alone or with HS-5 BMSCs. In kind it is cell-based. To be noted: MDA-MB-231met-luc-neo alone or with HS-5 BMSCs (10,000/well), 48 hrs. The method, then: as §2
Experiment [5] deals with KU812F-luc-neo target cells. The experiment in a line: CS-BLI killing of KU812F-luc-neo target cells by IL-2 stimulated PBMCs. The experiment is classed as cell-based. To be noted: for effect of concurrent drug exposure of co-culture on activity of PBMCs to kill tumor targets: 2 μM CC5013, 2 μM CC4047, 20 nM PS-341 or 100 nM Dex during co-culture; for effect of drug pretreatment of PBMCs on activity of PBMCs to kill tumor targets: PBMCs pretreated 24 hrs with IL-2 plus 1 μM CC5013, 1 μM CC4047, 10 nM PS-341 or 50 nM Dexamethasone, washed. The method, then:
(§3) PBMCs were isolated from a healthy donor, stimulated for 24 hrs with 10 ng/mL of IL-2 and then combined in culture with 5000 tumor target cells. The human multiple myeloma line, MM.1S-GFP-luc (FIG. 27A), was used as target cells and combined with PBMCs at 1:1, 1:5, 1:10, 1:20 and 1:40 ratios. The basophilic leukemia line, KU812F-luc-neo (FIG. 27B), was used as target cells and combined with PBMCs from the same donor at 1:1, 1:5, 1:10, 1:20 and 1:40 ratios. Viability of tumor cells was assessed using bioluminescence detection after the addition of luciferin substrate following 4 hours of co-culture with immune effector cells.
PBMCs were isolated from a healthy donor, stimulated for 24 hrs with IL-2 with either 1 μM CC5013 (FIG. 30A), 1 μM CC4047 (FIG. 30B), 10 nM PS-341 (FIG. 30C), or 50 nM Dexamethasone (FIG. 30D). PBMCs were washed and combined in culture with KU812F-luc-neo target cells at the 1:1, 1:2.5, 1:5, 1:10, 1:20 and 1:40 target to effector ratios.
PBMCs were isolated from a healthy donor, stimulated for 24 hrs with IL-2. PBMCs were then washed and combined in culture with KU812F-luc-neo target cells at the 1:1, 1:2.5, 1:5, 1:10, 1:20 and 1:40 target to effector ratios in the presence or absence 2 μM CC5013 (FIG. 33A), 2 μM CC4047 (FIG. 33B), 20 nM PS-341 (FIG. 33C), or 100 nM Dex (FIG. 33D).

In experiment [6] the test system is MM.1S-GFP-luc target cells. The experiment in a line: CS-BLI killing of MM.1S-GFP-luc target cells by IL-2 stimulated PBMCs. To be noted: for effect of concurrent drug exposure of co-culture on activity of PBMCs to kill tumor targets: 2 μM CC5013, 2 μM CC4047, 20 nM PS-341 or 100 nM Dex during co-culture; for effect of concurrent drug exposure of co-culture on activity of PBMCs to kill tumor targets / effect of drug pretreatment of PBMCs on activity of PBMCs to kill tumor targets: MM.1S-GFP-luc targets; for effect of drug pretreatment of PBMCs on activity of PBMCs to kill tumor targets: PBMCs pretreated 24 hrs with IL-2 plus 1 μM CC5013, 1 μM CC4047, 10 nM PS-341 or 50 nM Dexamethasone, washed. The experiment is classed as cell-based, human. The method, then:
as §3
PBMCs were isolated from a healthy donor, stimulated for 24 hrs with IL-2 in the presence of either 1 μM CC5013 (FIG. 29A), 1 μM CC4047 (FIG. 29B), 10 nM PS-341 (FIG. 29C), or 50 nM Dexamethasone (FIG. 29D). PBMCs were washed and combined in culture with MM.1S-GFP-luc target cells at the 1:1, 1:2.5, 1:5, 1:10, 1:20 and 1:40 target to effector ratios.
PBMCs were isolated from a healthy donor, stimulated for 24 hrs with IL-2 in the presence or absence of 1 μM CC4047. MM.1S-GFP-luc cells were cultured in the presence or absence of 1 μM CC4047. PBMCs and MM.1S-GFP-luc cells were washed to remove drug and combined in culture with target MM.1S-GFP-luc target cells, either pretreated with 1 μM CC4047 or without, and combined at 1:1, 1:2.5, 1:5, 1:10, 1:20 and 1:40 target to effector ratios in the absence of drug.
PBMCs were isolated from a healthy donor, stimulated for 24 hrs with IL-2. PBMCs were combined in culture with MM.1S-GFP-luc target cells at the 1:1, 1:2.5, 1:5, 1:10, 1:20 and 1:40 target to effector ratios in the presence or absence of 2 μM CC5013 (FIG. 32A), 2 μM CC4047 (FIG. 32B), 20 nM PS-341 (FIG. 32C), or 100 nM Dex (FIG. 32D) during co-culture.

Experiment [7] relates to Multiple myeloma (MM) cells. To be noted: cited from earlier work.
For a further experiment, the system named is MM. The settings on record: cited from earlier work.

Entries after “also recorded” stand apart in the source; their conditions may differ.

Turning to `CC1=C2C(=O)[C@H]3[C@@H](CC=C4C[C@@H](O)CC[C@@]43C)[C@@H]2CC[C@]12O[C@@H]1C[C@H](C)CN[C@H]1[C@H]2C` [11-keto-cyclopamine], the “effect of BMSC co-culture on tumor cell response to drug (protection)” value (shortened to “effect of BMSC co-culture”) in [1] and in experiment [2] was “conferred protection” each time.
On to `Nc1ccn([C@@H]2O[C@H](CO)[C@@H](O)[C@@H]2O)c(=O)n1` [AraC], for which the “effect of BMSC co-culture” value in experiment [3] is “decreased the responsiveness; also recorded: confer protection”; in [3] (listed as Ara-C), “develop stromal-derived resistance”; in the experiment on A375-luc-neo cells, “considerable level of protection”; in the experiment on K562-luc leukemia cells it was “protection was observed”; in the experiment on FRO-luc-neo cells, “no protection”; in experiment [4], “modest protection”.
In the case of `Nc1cccc2c1C(=O)N(C1CCC(=O)NC1=O)C2=O` (stereo not shown) [CC4047], in [5], the “effect of concurrent drug exposure of co-culture on activity of PBMCs to kill tumor targets” value was “significant difference increasing the activity” and the “effect of drug pretreatment of PBMCs on activity of PBMCs to kill tumor targets” value (“effect of drug pretreatment of PBMCs” for short) was “did have a significant impact on increasing”. Further, in [6], the “effect of concurrent drug exposure of co-culture on activity of PBMCs to kill tumor targets” value is recorded as “increased activity” and the “effect of drug pretreatment of PBMCs” value is “did not have a significant impact; also recorded: no significant increasing in activity”. Moreover, in experiment [6] (MM.1S-GFP-luc cells pretreated with 1 μM CC4047, washed), the “effect of drug pretreatment of target myeloma cells on killing by PBMCs” value is “significant increase”.
With `Nc1cccc2c1CN(C1CCC(=O)NC1=O)C2=O` (stereo not shown) [CC5013], in experiment [5], the “effect of concurrent drug exposure of co-culture on activity of PBMCs to kill tumor targets” value is “significant difference increasing the activity” and the “effect of drug pretreatment of PBMCs” value was “did not have a significant impact”. Also, in experiment [6], the “effect of concurrent drug exposure of co-culture on activity of PBMCs to kill tumor targets” value is “had an increase in the activity” and the “effect of drug pretreatment of PBMCs” value is “did not have a significant impact”.
In the case of `Cc1ccc(NC(=O)c2ccc(CN3CCN(C)CC3)cc2)cc1Nc1nccc(-c2cccnc2)n1` [Imatinib, imatinib], the “effect of BMSC co-culture” value is “confer protection” in experiment [3], “develop stromal-derived resistance; also recorded: decreased the responsiveness” in experiment [3] (listed as imatinib), “do not confer protection” in the experiment on K562-luc leukemia cells and “do not exhibit such phenotype” with K562-luc leukemia cells (listed as imatinib).
On to `CC(C)C[C@H](NC(=O)[C@H](Cc1ccccc1)NC(=O)c1cnccn1)B(O)O` [PS-341, bortezomib], for which the “effect of BMSC co-culture” value in experiment [1] (listed as bortezomib) is given as “did not abrogate the responsiveness”; in [2], “confer no protection”; in experiment [2] (listed as bortezomib) it was “did not abrogate the responsiveness”. Also, the “effect of concurrent drug exposure of co-culture on activity of PBMCs to kill tumor targets” value in experiment [5] is “significant difference blocking the activity”; in experiment [6], “decreased activity”. Further, the “effect of drug pretreatment of PBMCs” value in experiment [5] and in [6] was “did have a significant impact on blocking” in each case.
Turning to `Nc1cccc2c1CN(C1CCC(=O)NC1=O)C2=O` (stereo not shown) [lenalidomide], in experiment [7], the “single-agent in vitro anti-MM activity” value is given as “modest”. In addition, the “anti-MM activity in vivo” value in the experiment with MM is given as “potent”.
Take `Cc1cn(-c2cc(NC(=O)c3ccc(C)c(Nc4nccc(-c5cccnc5)n4)c3)cc(C(F)(F)F)c2)cn1` [nilotinib]: the “effect of BMSC co-culture” value in experiment [3] was “confer protection”; in the experiment with K562-luc leukemia cells, “do not confer protection”.
In the case of `O=C1CCC(N2C(=O)c3ccccc3C2=O)C(=O)N1` (stereo not shown) [thalidomide], the “single-agent in vitro anti-MM activity” value in experiment [7] was “modest”. In the experiment with MM, the “anti-MM activity in vivo” value is “potent”.
